Values after ≈ are worked out from the molar mass of the structure shown.

Data set [1] is filed under the species Homo sapiens. The data set can be described thus: Selectivity for human recombinant N-terminal 6-His-tagged PAK1 kinase domain (249 to 545 residues) over LCK (unknown origin).
Data set [2] in a line: Lipophilicity, log D of the compound at pH 7.4. The format is physicochemical. As to conditions: buffer.
Data set [3] is described as follows: Apparent permeability across apical to basolateral side in MDCK cells at 10 uM after 60 mins. The format is ADME, cell-based, Canis lupus familiaris. As to conditions: dog.
Data set [4] addresses Serine/threonine-protein kinase PAK 1 (Homo sapiens, UniProt Q13153). Description: Inhibition of human recombinant N-terminal 6-His-tagged PAK1 kinase domain (249 to 545 residues) expressed in Escherichia coli BL21(DE3) assessed as phosphorylation of coumarin labeled FRET peptide substrate at Ser/Thr19 preincubated for 10 mins followed by ATP addition measured after 60 mins by Z'-LYTE assay.

The nature of data set [5]: Kinetic solubility of the compound at pH 7.4. The class given is physicochemical. As to conditions: buffer, read-out: Kinetic_solubility.
A short description of data set [6]: Efflux ratio of permeability across basolateral to apical side over apical to basolateral side in MDCK cells at 10 uM after 60 mins. The class given is ADME, cell-based, Canis lupus familiaris. As to conditions: dog.
Data set [7] addresses Serine/threonine-protein kinase PAK 1/PAK 2 (Homo sapiens, UniProt Q13177+Q13153). Description: Inhibition of PAK1/2 in human EBC1 cells assessed as phosphorylation of MEK1 at serine 298 after 2 hrs by HTRF assay. The format is cell-based. In general terms: Time-resolved FRET reads energy transfer from a long-lived donor to a nearby acceptor.
For data set [8], the species on record is Homo sapiens. Description: Selectivity for human recombinant N-terminal 6-His-tagged PAK1 kinase domain (249 to 545 residues) over human recombinant PAK4 kinase domain.
The nature of data set [9]: Apparent permeability across basolateral to apical side in MDCK cells at 10 uM after 60 mins. The format is ADME, cell-based, Canis lupus familiaris. As to conditions: dog.

Sequence of Serine/threonine-protein kinase PAK 1 (Q13153 whole entry, the tested form may be a part): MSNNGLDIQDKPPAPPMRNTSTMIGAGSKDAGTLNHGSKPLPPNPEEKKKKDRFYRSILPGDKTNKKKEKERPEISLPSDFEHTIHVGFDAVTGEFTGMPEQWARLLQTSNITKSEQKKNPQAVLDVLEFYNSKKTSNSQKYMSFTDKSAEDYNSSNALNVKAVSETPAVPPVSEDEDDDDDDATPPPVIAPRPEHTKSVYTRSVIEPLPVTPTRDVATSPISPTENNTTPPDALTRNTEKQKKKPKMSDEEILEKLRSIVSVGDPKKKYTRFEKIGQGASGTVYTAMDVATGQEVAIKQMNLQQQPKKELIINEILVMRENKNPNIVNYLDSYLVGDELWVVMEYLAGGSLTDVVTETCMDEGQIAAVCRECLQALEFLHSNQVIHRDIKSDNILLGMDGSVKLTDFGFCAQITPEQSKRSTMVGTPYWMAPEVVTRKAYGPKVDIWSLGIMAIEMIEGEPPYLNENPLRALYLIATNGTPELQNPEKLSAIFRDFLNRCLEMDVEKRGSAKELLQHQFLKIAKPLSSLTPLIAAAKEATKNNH

For orientation: logD means the decadic logarithm of the distribution of all forms, ionised or not, between an organic phase and buffer at a given pH. Low values mean a more hydrophilic compound, high ones a more lipophilic compound. By Papp A→B is commonly meant how fast a substance crosses the layer from the apical side. The term Ki denotes a dissociation constant, usually derived from enzyme kinetics or from competition with a known ligand. The efflux ratio is a quotient of directional permeabilities that is used to spot active efflux. By IC50 is commonly meant the midpoint of a concentration-inhibition curve. On to `CNc1ncc2cc(-c3ccc(-n4cccc(C)c4=O)cc3Cl)c(=O)n(CC3CCNCC3(F)F)c2n1` (racemic), for which the Selectivity ratio in the data set listed under Homo sapiens [1] came to 20. Moreover, the logD in data set [2] is 0.9. Also, the Papp A→B at 1 h, 10 µM in [3] is 9.7 ×10⁻⁶ cm/s. Besides, in data set [4], the inhibition constant (Ki) is 2.7 nM. The solubility kinetic in data set [5] stood at 115 µM (≈ 60.6 µg/mL). Also, the efflux ratio at 1 h, 10 µM in data set [6] was 1.3. The half-inhibitory concentration (IC50) in [7] is 78 nM.

Take `CCn1c(=O)c(-c2ccc(-n3cccc(C)c3=O)cc2Cl)cc2cnc(NC)nc21`: the Selectivity ratio in the data set filed under Homo sapiens [1] amounted to 53. This compound also registered a logD in data set [2] of 2.1. In [3], the apical-to-basolateral permeability (Papp A→B) at 1 h, 10 µM is 28 ×10⁻⁶ cm/s. For the same compound, the Ki in [4] was 8 nM. Also, the solubility kinetic in data set [5] stood at 2.5 µM (≈ 1.05 µg/mL). The efflux ratio at 1 h, 10 µM in [6] was found to be 0.4. In addition, the 50% inhibitory concentration (IC50) in data set [7] was 340 nM.

`CNc1ncc2cc(-c3ccc(N4CCN(C)C4=O)cc3Cl)c(=O)n(CCCN)c2n1`: the results for the Selectivity ratio in the data set filed under Homo sapiens [1] and in the data set filed under Homo sapiens [8] were 10 and above 52, respectively.

Consider `CNc1ncc2cc(-c3ccccc3Cl)c(=O)n(CCCN)c2n1`, for which the figures for the Selectivity ratio in the data set filed under Homo sapiens [1] and in the data set filed under Homo sapiens [8] were 0.4 and above 7.6, respectively. Also, the Ki in data set [4] is 382 nM.

Consider `CNc1ncc2cc(-c3ccc(-n4cccc(C)c4=O)cc3Cl)c(=O)n(CCO)c2n1`, for which the Selectivity ratio in the data set listed under Homo sapiens [1] came to 63. This compound came in with a pH-dependent lipophilicity (logD) in [2] of 2.2. Also, the apical-to-basolateral permeability (Papp A→B) at 1 h, 10 µM in [3] was 5.5 ×10⁻⁶ cm/s. In addition, the inhibitory constant (Ki) in data set [4] stood at 17 nM. Also, in [5], the solubility kinetic turned out to be 15 µM (≈ 6.57 µg/mL). Further, the efflux ratio at 1 h, 10 µM in data set [6] came to 2.8. In addition, in data set [7], the IC50 came to 930 nM.

For `CNc1ncc2cc(-c3ccc(-n4cccc(C)c4=O)cc3Cl)c(=O)n(CCOC)c2n1`, in the data set listed under Homo sapiens [1], the Selectivity ratio was 38. This compound also registered a logD in data set [2] of 2.2. Also, the Papp A→B at 1 h, 10 µM in [3] stood at 27 ×10⁻⁶ cm/s. Moreover, in data set [4], the inhibition constant (Ki) amounted to 13 nM. The solubility kinetic in data set [5] was found to be 80 µM (≈ 36.2 µg/mL). Besides, in data set [6], the efflux ratio at 1 h, 10 µM stood at 0.5. Besides, the IC50 in data set [7] amounted to 450 nM.

On to `CNc1ncc2cc(-c3ccc(-n4cncc(C)c4=O)cc3Cl)c(=O)n(CCCN)c2n1`, for which the Selectivity ratio in the data set filed under Homo sapiens [1] is 282; in the data set listed under Homo sapiens [8], above 443. Moreover, the inhibition constant (Ki) in data set [4] was 6.7 nM.

With `COCCn1c(=O)c(-c2ccc(-n3cccc(C)c3=O)cc2Cl)cc2cnc(NC3COC3)nc21`, the Selectivity ratio in the data set filed under Homo sapiens [1] amounted to 158. In data set [2], this compound had a log distribution coefficient (logD) of 1.9. Also, the apical-to-basolateral permeability (Papp A→B) at 1 h, 10 µM in data set [3] came out at 7.6 ×10⁻⁶ cm/s. The inhibition constant Ki in [4] stood at 5.9 nM. Further, in data set [5], the solubility kinetic came to 38 µM (≈ 18.8 µg/mL). In addition, in data set [6], the efflux ratio at 1 h, 10 µM was 2. The IC50 in data set [7] amounted to 290 nM.

In general, Papp B→A refers to the apparent permeability from the basolateral to the apical side of a cell layer. As for `CNc1ncc2cc(-c3ccc(-n4cccc(C)c4=O)cc3Cl)c(=O)n(CC(F)(F)CN)c2n1`, in the data set listed under Homo sapiens [1], the Selectivity ratio is 56. The same compound had a logD in data set [2] of 1.8. For the same compound, the Papp B→A at 1 h, 10 µM in data set [9] worked out at 15.4 ×10⁻⁶ cm/s. Further, the Papp A→B at 1 h, 10 µM in data set [3] was 8.4 ×10⁻⁶ cm/s. Further, the inhibition constant (Ki) in data set [4] was determined as 9 nM. In [5], the solubility kinetic was found to be 51 µM (≈ 24.8 µg/mL). For the same compound, the efflux ratio at 1 h, 10 µM in data set [6] was found to be 1.8. Further, the half-maximal inhibitory concentration (IC50) in data set [7] amounted to 460 nM.

Regarding `Cc1nccn(-c2ccc(-c3cc4cnc(NC5COC5)nc4n(CC4CCNCC4(F)F)c3=O)c(Cl)c2)c1=O` (single isomer, unassigned; enantiomer 2), the inhibitory constant (Ki) in [4] amounted to 12 nM.

As to `CNc1ncc2cc(-c3ccc(-n4ccn(C)c4=O)cc3Cl)c(=O)n(CCCN)c2n1`, the Selectivity ratio in the data set listed under Homo sapiens [1] is 76; in the data set filed under Homo sapiens [8], above 232. The Ki in data set [4] was 13 nM.

For `CNc1ncc2cc(-c3ccc(-n4cccc(C)c4=O)cc3Cl)c(=O)n(CCCN)c2n1`, the Selectivity ratio stood at 221 in the data set listed under Homo sapiens [1] and 517 in the data set listed under Homo sapiens [8]. The compound further came in with a log distribution coefficient (logD) in [2] of 0.05. In addition, the Papp B→A at 1 h, 10 µM in data set [9] is 0.33 ×10⁻⁶ cm/s. The Papp A→B at 1 h, 10 µM in data set [3] stood at 0.1 ×10⁻⁶ cm/s. Moreover, the Ki in data set [4] was 3.5 nM. Further, the solubility kinetic in [5] worked out at 82 µM (≈ 37 µg/mL). Also, the efflux ratio at 1 h, 10 µM in [6] worked out at 4.3. Moreover, in [7], the half-maximal inhibitory concentration (IC50) worked out at 602 nM.

With `CNc1ncc2cc(-c3ccc(-c4cccc(C)n4)cc3Cl)c(=O)n(CCCN)c2n1`, the Selectivity ratio was 53 in the data set filed under Homo sapiens [1] and 449 in the data set filed under Homo sapiens [8]. Moreover, the inhibition constant (Ki) in data set [4] came out at 3.3 nM.

Turning to `CNc1ncc2cc(-c3ccc(-n4ccccc4=O)cc3Cl)c(=O)n(CCCN)c2n1`, the Selectivity ratio is 86 in the data set listed under Homo sapiens [1] and above 82 in the data set filed under Homo sapiens [8]. The inhibitory constant (Ki) in [4] stood at 36 nM.

On to `CNc1ncc2cc(-c3ccc(-n4cccc(C)c4=O)cc3Cl)c(=O)n(CCOC3CN(C)C3)c2n1`, for which the Selectivity ratio in the data set listed under Homo sapiens [1] stood at 86. The compound further yielded a log distribution coefficient (logD) in data set [2] of 0.63. Besides, the Papp A→B at 1 h, 10 µM in data set [3] worked out at 0.2 ×10⁻⁶ cm/s. For the same compound, the inhibition constant (Ki) in data set [4] came to 4.4 nM. In addition, the solubility kinetic in data set [5] worked out at 71 µM (≈ 36 µg/mL). Moreover, the efflux ratio at 1 h, 10 µM in data set [6] stood at 26. Besides, the half-inhibitory concentration (IC50) in data set [7] was determined as 88 nM.

For `CNc1ncc2cc(-c3ccc(N4CCCC4=O)cc3Cl)c(=O)n(CCCN)c2n1`, the values for the Selectivity ratio in the data set filed under Homo sapiens [1] and in the data set listed under Homo sapiens [8] were 25 and above 33, respectively. Also, the Ki in data set [4] came out at 89 nM.

Take `CNc1ncc2cc(-c3ccc(-n4ccnc(C)c4=O)cc3Cl)c(=O)n(CCCN)c2n1`: the Selectivity ratio in the data set listed under Homo sapiens [1] was 429; in the data set listed under Homo sapiens [8], above 642. Besides, the Ki in data set [4] is 4.6 nM.

(Values after ChEMBL document CHEMBL3817726, “Chemically Diverse Group I p21-Activated Kinase (PAK) Inhibitors Impart Acute Cardiovascular Toxicity with a Narrow Therapeutic Window” (J Med Chem, 2016).)
